The values that follow come from US20260285857A1, “BICYCLIC AND HETEROCYCLIC AMIDE COMPOUNDS” (priority 2024, published 2026).

Each structure is given as a SMILES string.

This test relates to immunoglobulin light chain protein WIL-FL T46L. In words: Differential scanning fluorimetry (thermal shift) assay. In kind it is binding. The settings on record: temperature shift [Tm]compound-[Tm]vehicle, recombinant WIL-FL T46L.

`Cc1cc(N2CC[C@](C)(c3ccccc3)C2)cc2nc(C(=O)N3CC[C@@]4(CCN(c5cccc(C(=O)O)n5)C4)C3)oc12` [Compound 756, 6-[(5R)-2-[7-methyl-5-[(3R)-3-methyl-3-phenyl-pyrrolidin-1-yl]-1,3-benzoxazole-2-carbonyl]-2,7-diazaspiro[4.4]nonan-7-yl]pyridine-2-carboxylic acid]: the DSF result (Table B) is given as “**** (>1.5-2.5° C.=****)”.
The same measure, in the same setting: the entry for `CNC(=O)c1nc2c(Cc3nc(CC(=O)O)n[nH]3)cc(N3CC[C@](C)(c4ccccc4)C3)cn2n1` [Compound 759, 2-[5-[[2-(methylcarbamoyl)-6-[(3R)-3-methyl-3-phenyl-pyrrolidin-1-yl]-[1,2,4]triazolo[1,5-a]pyridin-8-yl]methyl]-1H-1,2,4-triazol-3-yl]acetic acid] is “**** (>1.5-2.5° C.=****)”.
On the same count and under the same terms, the result for `CNC(=O)c1nc2c(C(F)F)cc(N3CC[C@](C)(c4ccccc4)C3)cn2n1` [Compound 760, (R)-8-(difluoromethyl)-N-methyl-6-(3-methyl-3-phenylpyrrolidin-1-yl)-[1,2,4]triazolo[1,5-a]pyridine-2-carboxamide] reads “***** (>2.5° C.=*****)”; that for `Cc1cc(N2CC[C@](C)(c3ccccc3)C2)cn2nc(C(=O)N3CC[C@@H]4NC(=O)C[C@@H]43)nc12` [Compound 762], “***** (>2.5° C.=*****)”.
`Cc1cc(N2CC[C@@](C)(c3cccc(F)c3)C2)cn2nc(C(=O)N3CC[C@@]4(CCN(c5cccc(C(=O)O)n5)C4)C3)nc12` [Compound 763, 6-((R)-7-(6-((S)-3-(3-fluorophenyl)-3-methylpyrrolidin-1-yl)-8-methyl-[1,2,4]triazolo[1,5-a]pyridine-2-carbonyl)-2,7-diazaspiro[4.4]nonan-2-yl)picolinic acid]: the DSF result (Table B) is recorded as “***** (>2.5° C.=*****)”.
On to `CNC(=O)C1C2COC1(c1nc3c(C)cc(N4CC[C@](C)(c5ccccc5)C4)cn3n1)C2` (stereo partly drawn) [Example 72], for which the DSF entry (Table A) is “***** (>2.5° C.=*****)”.
